According to US20140275090A1, “BILE ACID RECYCLING INHIBITORS FOR TREATMENT OF PRIMARY SCLEROSING CHOLANGITIS AND INFLAMMATORY BOWEL DISEASE” (Lumena Pharmaceuticals, Inc., priority 2013, published 2014):

Tested on: fecal bile acids
Experiment: Phase 1 ascending multiple oral doses of LUM001 in healthy adults: fecal bile acid analysis
Assay type: in vivo, human
Settings: 28 days
Experimental: This Phase 1 study was a randomized, double-blind, placebo-controlled study of ascending multiple oral doses of LUM001 in healthy, adult subjects. This study was conducted at a single center. There were 13 LUM001 dosing panels: 10, 20, 60, 100, and 20 mg every morning (qAM) (2) (i.e., the regimen was tested a second time in the study), 5 mg every evening (qPM), 0.5, 1, 2.5, 5, 2.5 (2), 5 (2), and 0.5 to 5 mg qAM dose titration. Most of the dosing panels included subjects treated with matching placebo. No subject participated in more than 1 dosing panel. […]
On Day 1 of the Treatment Period, subjects who qualified for enrollment were randomized in the order in which they were admitted to the research facility. […] The safety and tolerability of LUM001 were evaluated by physical examination, ascertainment of adverse signs and symptoms, and clinical laboratory studies. […]
Fecal samples were collected for all panels except the dose-titration panel, 2.5 (2) and 5 mg (2), on Days 9 through 14 and 23 through 28 (data shown in FIG. 6; *p<0.05; **p<0.01 compared to placebo). Twenty-four hour FBA excretions were quantified by Pharmacia for Days 9 through 14 and 23 through 28. […] The weight of each 24-hour fecal collection was recorded on the CRFs. […]
An aliquot for each 24-hour fecal sample collected on Days 23 through 28 was combined, homogenized, and analyzed for bile acid species concentrations by ANAPHARM. […]

CCCCC1(CCCC)CS(=O)(=O)c2ccc(N(C)C)cc2[C@@H](c2ccc(OCc3ccc(C[N+]45CCN(CC4)CC5)cc3)cc2)[C@H]1O [LUM001]
effect on fecal bile acids: significant increase
